From patent USH1942H, “Herbicidal 3-(pyrazolylphenyl)propanoic acids and derivatives” (FMC Corporation, priority 1998, dated 2001)

Key:
[1] = test system: Wheat; assay: pre-emergence herbicidal activity, wheat; type: in vivo, Triticum aestivum var. Lew; settings: preemergence, 1.0 kg/ha
From the text: (§1) The test plants included soybean (Glycine max var. Winchester), field corn (Zea mays var. Pioneer 3732), wheat (Triticum aestivum var. Lew), morning glory (Ipomea lacunosa or Ipomea hederacea), velvetleaf (Abutilon theophrasti), green foxtail (Setaria viridis), Johnsongrass (Sorghum halepense), blackgrass (Aloepecurus myosuroides), common chickweed (Stellaria media), and common cocklebur (Xanthium strumarium L.).
(§2) For pre-emergence testing, two disposable fiber flats (8 cm×15 cm×25 cm) for each rate of application of each candidate herbicide were filled to an approximate depth of 6.5 cm with steam-sterilized sandy loam soil. The soil was leveled and impressed with a template to provide five evenly spaced furrows 13 cm long and 0.5 cm deep in each flat. Seeds of soybean, wheat, corn, green foxtail, and johnsongrass were planted in the furrows of the first flat, and seeds of velvetleaf, morningglory, common chickweed, cocklebur, and blackgrass were planted in the furrows of the second flat. […]
(§3) The pre-emergence flats were initially subjected to a light water spray. […] After 12-17 days, the plants were examined, and the phytotoxicity data were recorded. […]
(§4) Phytotoxicity data are taken as percent control. Percent control is determined by a method similar to the 0 to 100 rating system disclosed in "Research Methods in Weed Science," 2nd ed., B. Truelove, Ed. […]

[2] = test system: Soybean; assay: pre-emergence herbicidal activity, soybean; type: in vivo, Glycine max var. Winchester; settings: preemergence, 1.0 kg/ha
From the text: as §1, §2, §3, §4

[3] = test system: Wheat; assay: post-emergence herbicidal activity, wheat; type: in vivo, Triticum aestivum var. Lew; settings: postemergence, 1.0 kg/ha
[4] = test system: Blackgrass; assay: pre-emergence herbicidal activity, blackgrass; type: in vivo, Aloepecurus myosuroides; settings: preemergence, 1.0 kg/ha
From the text: as §1, §2, §3, §4

[5] = test system: Cocklebur; assay: post-emergence herbicidal activity, cocklebur; type: in vivo, Xanthium strumarium L.; settings: postemergence, 1.0 kg/ha
[6] = test system: Morningglory; assay: pre-emergence herbicidal activity, morningglory; type: in vivo, Ipomea lacunosa or Ipomea hederacea; settings: preemergence, 1.0 kg/ha
From the text: as §1, §2, §3, §4

[7] = test system: Johnsongrass; assay: post-emergence herbicidal activity, johnsongrass; type: in vivo, Sorghum halepense; settings: postemergence, 1.0 kg/ha
[8] = test system: Blackgrass; assay: post-emergence herbicidal activity, blackgrass; type: in vivo, Aloepecurus myosuroides; settings: postemergence, 1.0 kg/ha
[9] = test system: Chickweed; assay: pre-emergence herbicidal activity, chickweed; type: in vivo, Stellaria media; settings: preemergence, 1.0 kg/ha
From the text: as §1, §2, §3, §4

[10] = test system: Johnsongrass; assay: pre-emergence herbicidal activity, johnsongrass; type: in vivo, Sorghum halepense; settings: preemergence, 1.0 kg/ha
From the text: as §1, §2, §3, §4

[11] = test system: Cocklebur; assay: pre-emergence herbicidal activity, cocklebur; type: in vivo, Xanthium strumarium L.; settings: preemergence, 1.0 kg/ha
From the text: as §1, §2, §3, §4

[12] = test system: Corn; assay: post-emergence herbicidal activity, corn; type: in vivo, Zea mays var. Pioneer 3732; settings: postemergence, 1.0 kg/ha
[13] = test system: Soybean; assay: post-emergence herbicidal activity, soybean; type: in vivo, Glycine max var. Winchester; settings: postemergence, 1.0 kg/ha
[14] = test system: Corn; assay: pre-emergence herbicidal activity, corn; type: in vivo, Zea mays var. Pioneer 3732; settings: preemergence, 1.0 kg/ha
From the text: as §1, §2, §3, §4

[15] = test system: Chickweed; assay: post-emergence herbicidal activity, chickweed; type: in vivo, Stellaria media; settings: postemergence, 1.0 kg/ha
[16] = test system: Green foxtail; assay: post-emergence herbicidal activity, green foxtail; type: in vivo, Setaria viridis; settings: postemergence, 1.0 kg/ha
[17] = test system: Green foxtail; assay: pre-emergence herbicidal activity, green foxtail; type: in vivo, Setaria viridis; settings: preemergence, 1.0 kg/ha
From the text: as §1, §2, §3, §4

[18] = test system: Velvetleaf; assay: pre-emergence herbicidal activity, velvetleaf; type: in vivo, Abutilon theophrasti; settings: preemergence, 1.0 kg/ha
From the text: as §1, §2, §3, §4

SMILES: CCOC(=O)C(Cl)Cc1cc(-c2nn(C)c(OC(F)F)c2Cl)c(F)cc1Cl (stereo not drawn) [Compound 2, Ethyl 2-chloro-3-[2-chloro-4-fluoro-5-(4-chloro-5-difluoromethoxy-1-methylpyrazol-3-yl)phenyl]propanoate]
- % CONTROL [1]: 30%
- % CONTROL [2]: 90%
- % CONTROL [3]: 55%
- % CONTROL [4]: 50%
- % CONTROL [5]: 100%
- % CONTROL [6]: 100%
- % CONTROL [7]: 90%
- % CONTROL [8]: 60%
- % CONTROL [9]: 100%
- % CONTROL [10]: 70%
- % CONTROL [11]: 100%
- % CONTROL [12]: 90%
- % CONTROL [13]: 100%
- % CONTROL [14]: 10%
- % CONTROL [15]: 100%
- % CONTROL [16]: 100%
- % CONTROL [17]: 100%
- % CONTROL [18]: 100%

SMILES: CCOC(=O)C(Cl)Cc1cc(-c2nn(C)c(OC(F)F)c2Cl)c(Cl)cc1Cl (stereo not drawn) [Compound 1]
- % CONTROL [1]: 20%
- % CONTROL [2]: 100%
- % CONTROL [3]: 30%
- % CONTROL [4]: 40%
- % CONTROL [5]: 100%
- % CONTROL [6]: 100%
- % CONTROL [7]: 100%
- % CONTROL [8]: 40%
- % CONTROL [9]: 100%
- % CONTROL [10]: 80%
- % CONTROL [11]: 100%
- % CONTROL [12]: 60%
- % CONTROL [13]: 100%
- % CONTROL [14]: 40%
- % CONTROL [15]: 100%
- % CONTROL [16]: 100%
- % CONTROL [17]: 100%
- % CONTROL [18]: 100%
